# From US20260285850A1, “SUBSTITUTED OXAZOLIDINONES AND IMIDAZOLINONES AS HERBICIDES” (FMC CORPORATION, priority 2023, published 2026)
# Tests used:
# Type in all cases: in vivo
# [1] = tested on: barnyardgrass (Echinochloa crus-galli); experiment: Test A preemergence soil spray, visual injury rating 0-100; conditions: 10 days, 0 = no effect, 100 = complete control
# How it was run: (§1)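 Compound in a non-phytotoxic, surfactant-containing solvent is applied either as a directed soil spray before seedlings emerge or onto emerged plants 2-10 cm tall; pots hold a loam-sand blend. Plants grow 10 days under greenhouse conditions and are rated by eye against untreated controls (0 no effect, 100 complete control).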
# [2] = tested on: ragweed (common ragweed, Ambrosia artemisiifolia); experiment: as above; conditions: 10 days, 0 = no effect, 100 = complete control
# How it was run: as §1
# [3] = tested on: wheat (Triticum aestivum); experiment: as above; conditions: 10 days, 0 = no effect, 100 = complete control
# How it was run: as §1
# [4] = tested on: ryegrass, Italian (italian ryegrass, Lolium multiflorum); experiment: as above; conditions: 10 days, 0 = no effect, 100 = complete control
# How it was run: as §1
# [5] = tested on: palmer (palmer amaranth, palmer pigweed, Amaranthus palmeri); experiment: as above; conditions: 10 days, 0 = no effect, 100 = complete control
# How it was run: as §1
# kochia (Bassia scoparia) [6] = experiment: as above; conditions: 10 days, 0 = no effect, 100 = complete control
# How it was run: as §1
# [7] = tested on: green foxtail (Setaria viridis); experiment: as above; conditions: 10 days, 0 = no effect, 100 = complete control
# How it was run: as §1
# corn (Zea mays) [8] = experiment: as above; conditions: 10 days, 0 = no effect, 100 = complete control
# How it was run: as §1
# [9] = tested on: blackgrass (Alopecurus myosuroides); experiment: as above; conditions: 10 days, 0 = no effect, 100 = complete control
# How it was run: as §1
# [10] = tested on: oat, wild (wild oat, Avena fatua); experiment: as above; conditions: 10 days, 0 = no effect, 100 = complete control
# How it was run: as §1
# soybean (Glycine max) [11] = experiment: as above; conditions: 10 days, 0 = no effect, 100 = complete control
# How it was run: as §1
# [12] = tested on: sedge, umbrella (small-flower umbrella sedge, Cyperus difformis); experiment: Test B flooded paddy test, visual plant response rating 0-100; conditions: 250 g ai/ha, Flood, applied to paddy water, evaluated after 13 days
# How it was run: (§2)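 Treatment occurs at the 2-leaf stage by adding compound to floodwater standing 3 cm above the soil, a level kept for the whole test. Plants stay in the greenhouse 13 days before visual comparison with controls.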
# rice (Oryza sativa) = experiment: as above; conditions: 250 g ai/ha, Flood, applied to paddy water, evaluated after 13 days
# How it was run: as §2
# [13] = tested on: ducksalad (Heteranthera limosa); experiment: as above; conditions: 250 g ai/ha, Flood, applied to paddy water, evaluated after 13 days
# How it was run: as §2
# [14] = tested on: barnyardgrass (Echinochloa crusgalli); experiment: as above; conditions: 250 g ai/ha, Flood, applied to paddy water, evaluated after 13 days
# How it was run: as §2
# [15] = tested on: barnyardgrass (Echinochloa crus-galli); experiment: Test A postemergence application, visual injury rating 0-100; conditions: 10 days
# How it was run: as §1
# [16] = tested on: ragweed (common ragweed, Ambrosia artemisiifolia); experiment: as above; conditions: 10 days
# How it was run: as §1
# [17] = tested on: wheat (Triticum aestivum); experiment: as above; conditions: 10 days
# How it was run: as §1
# [18] = tested on: galium (catchweed bedstraw, Galium aparine); experiment: as above; conditions: 10 days
# How it was run: as §1
# [19] = tested on: ryegrass, Italian (italian ryegrass, Lolium multiflorum); experiment: as above; conditions: 10 days
# How it was run: as §1
# [20] = tested on: palmer (palmer amaranth, palmer pigweed, Amaranthus palmeri); experiment: as above; conditions: 10 days
# How it was run: as §1
# kochia (Bassia scoparia) [21] = experiment: as above; conditions: 10 days
# How it was run: as §1
# [22] = tested on: green foxtail (Setaria viridis); experiment: as above; conditions: 10 days
# How it was run: as §1
# corn (Zea mays) [23] = experiment: as above; conditions: 10 days
# How it was run: as §1
# [24] = tested on: blackgrass (Alopecurus myosuroides); experiment: as above; conditions: 10 days
# How it was run: as §1
# [25] = tested on: oat, wild (wild oat, Avena fatua); experiment: as above; conditions: 10 days
# How it was run: as §1
# [26] = tested on: horseweed (Erigeron canadensis); experiment: as above; conditions: 10 days
# How it was run: as §1
# soybean (Glycine max) [27] = experiment: as above; conditions: 10 days
# How it was run: as §1
# [28] = 31 g ai/ha, postemergence, 0 = no effect, 100 = complete control
# [29] = Postemergence, 125 g ai/ha, 0 is no effect, 100 is complete control
smiles,measurement,setting,value
CC1(C(=O)NC2CCC(C(=O)NS(C)(=O)=O)C2)CN(c2cc(F)cc(F)c2)C(=O)O1 (stereo not shown) [Compound 13],Barnyardgrass plant response rating (0-100),[1]; 31 g ai/ha,0
same,Barnyardgrass plant response rating (0 to 100 scale),[1]; 125 g ai/ha,20
same,Ragweed plant response rating (0-100),[2]; 31 g ai/ha,40
same,Ragweed plant response rating (0 to 100 scale),[2]; 125 g ai/ha,20
same,Wheat plant response rating (0-100),[3]; 31 g ai/ha,0
same,Wheat plant response rating (0 to 100 scale),[3]; 125 g ai/ha,80
same,"Ryegrass, Italian plant response rating (0-100)",[4]; 31 g ai/ha,20
same,"Ryegrass, Italian plant response rating (0 to 100 scale)",[4]; 125 g ai/ha,90
same,"Amaranth, Palmer plant response rating (0-100)",[5]; 31 g ai/ha,0
same,"Amaranth, Palmer plant response rating (0 to 100 scale)",[5]; 125 g ai/ha,0
same,Kochia plant response rating (0-100),kochia (Bassia scoparia) [6]; 31 g ai/ha,0
same,Kochia plant response rating (0 to 100 scale),kochia (Bassia scoparia) [6]; 125 g ai/ha,0
same,"Foxtail, Green plant response rating (0-100)",[7]; 31 g ai/ha,0
same,"Foxtail, Green plant response rating (0 to 100 scale)",[7]; 125 g ai/ha,50
same,Corn plant response rating (0-100),corn (Zea mays) [8]; 31 g ai/ha,0
same,Corn plant response rating (0 to 100 scale),corn (Zea mays) [8]; 125 g ai/ha,0
same,Blackgrass plant response rating (0-100),[9]; 31 g ai/ha,20
same,Blackgrass plant response rating (0 to 100 scale),[9]; 125 g ai/ha,50
same,"Oat, Wild plant response rating (0-100)",[10]; 31 g ai/ha,0
same,"Oat, Wild plant response rating (0 to 100 scale)",[10]; 125 g ai/ha,20
same,Soybean plant response rating (0-100),soybean (Glycine max) [11]; 31 g ai/ha,0
same,Soybean plant response rating (0 to 100 scale),soybean (Glycine max) [11]; 125 g ai/ha,0
same,"Plant response rating, Sedge, Umbrella (0 to 100 scale, 0 is no effect and 100 is complete control)",[12],0
same,"Plant response rating, Rice (0 to 100 scale, 0 is no effect and 100 is complete control)",rice (Oryza sativa),0
same,"Plant response rating, Ducksalad (0 to 100 scale, 0 is no effect and 100 is complete control)",[13],0
same,"Plant response rating, Barnyardgrass (0 to 100 scale, 0 is no effect and 100 is complete control)",[14],0
same,Barnyardgrass plant response rating (0-100),[15]; [28],10
same,Barnyardgrass plant response rating (0 to 100 scale),[15]; [29],70
same,Ragweed plant response rating (0-100),[16]; [28],0
same,Ragweed plant response rating (0 to 100 scale),[16]; [29],20
same,Wheat plant response rating (0-100),[17]; [28],50
same,Wheat plant response rating (0 to 100 scale),[17]; [29],70
same,Galium plant response rating (0-100),[18]; [28],0
same,Galium plant response rating (0 to 100 scale),[18]; [29],70
same,"Ryegrass, Italian plant response rating (0-100)",[19]; [28],20
same,"Ryegrass, Italian plant response rating (0 to 100 scale)",[19]; [29],70
same,"Amaranth, Palmer plant response rating (0-100)",[20]; [28],10
same,"Amaranth, Palmer / Pigweed, Palmer plant response rating (0 to 100 scale)",[20]; [29],90
same,Kochia plant response rating (0-100),kochia (Bassia scoparia) [21]; [28],0
same,Kochia plant response rating (0 to 100 scale),kochia (Bassia scoparia) [21]; [29],50
same,"Foxtail, Green plant response rating (0-100)",[22]; [28],0
same,"Foxtail, Green plant response rating (0 to 100 scale)",[22]; [29],50
same,Corn plant response rating (0-100),corn (Zea mays) [23]; [28],0
same,Corn plant response rating (0 to 100 scale),corn (Zea mays) [23]; [29],30
same,Blackgrass plant response rating (0-100),[24]; [28],10
same,Blackgrass plant response rating (0 to 100 scale),[24]; [29],60
same,"Oat, Wild plant response rating (0-100)",[25]; [28],10
same,"Oat, Wild plant response rating (0 to 100 scale)",[25]; [29],50
same,Horseweed plant response rating (0-100),[26]; [28],0
same,Horseweed plant response rating (0 to 100 scale),[26]; [29],20
same,Soybean plant response rating (0-100),soybean (Glycine max) [27]; [28],0
same,Soybean plant response rating (0 to 100 scale),soybean (Glycine max) [27]; [29],50
